Results: ChEMBL document CHEMBL4433202, “Design and development of multitarget-directed N-Benzylpiperidine analogs as potential candidates for the treatment of Alzheimer's disease” (Eur J Med Chem, 2019)
Calls of active or inactive are those of the source. No cut-off for these calls is given here.

Tests used:
[1] = target: Cholinesterase (Homo sapiens, UniProt P06276); assay: Inhibition of human serum butyrylcholinesterase using BTCI as substrate pre-incubated for 10 mins followed by substrate addition and measured for 6 mins by Ellman's method
[2] = target: T1, Acetylcholinesterase (Homo sapiens, UniProt P22303); assay: Inhibition of human erythrocyte acetylcholinesterase using acetylthiocholine iodide as substrate pre-incubated for 10 mins followed by substrate addition and measured for 6 mins by Ellman's method
[3] = target: Beta-secretase 1 (Homo sapiens, UniProt P56817); assay: Inhibition of human BACE1 using as 7-Methoxycoumarin-4-acetyl-[Asn670, Leu671]-Amyloid beta/A4 precursor protein 770 fragment 667-676-(2,4-dinitrophenyl) Lys-Arg-Arg amide trifluoroacetate salt as substrate incubated for 2 hrs by FRET based florescence assay
[4] = system: Rattus norvegicus; assay: Cognitive enhancing effect in Wistar rat model of amyloid beta (1 to 42) oligomer-induced memory impairment model assessed as escape latency time at 5 mg/kg, po for 9 days by Morris water maze test (reference value: 49.3 to 74 secs); format: functional
[5] = Cmax in Wistar rat at 10 mg/kg, po measured up to 0 to 72 hrs; format: ADME, organism-based; design: dose 10 mg/kg, route oral; conditions: in vivo
[6] = Acute toxicity in Wistar rat assessed as induction of abnormal reactions at 100 to 500 mg/kg, po measured up to 14 days; format: organism-based; conditions: in vivo, 336 h
[7] = target: Amyloid-beta precursor protein (Homo sapiens) (UniProt P05067); assay: Inhibition of amyloid beta 1 to 42 (unknown origin) aggregation assessed as oligomer height at 10 uM incubated for 7 days by AFM analysis
[8] = MRT in Wistar rat at 10 mg/kg, po measured up to 0 to 72 hrs; format: ADME, organism-based; conditions: in vivo
[9] = Tmax in Wistar rat at 10 mg/kg, po measured up to 0 to 72 hrs; format: ADME, organism-based; conditions: in vivo
[10] = Permeability of the compound at 25 ug/ml after 18 hrs by PAMPA-BBB assay
[11] = system: Rattus norvegicus; assay: Antioxidant activity Wistar rat model of scopolamine-induced amnesia assessed as reduction in MDA levels in brain homogenates at 10 mg/kg, po by TBARS assay; format: functional, organism-based
[12] = target: T1, Acetylcholinesterase; assay: Non-competitive inhibition of human erythrocyte AChE using acetylthiocholine iodide as substrate preincubated for 10 mins followed by substrate addition and measured for 6 mins by Lineweaver-Burk plot analysis
[13] = target: Amyloid-beta precursor protein (Homo sapiens) (UniProt P05067); assay: Inhibition of amyloid beta 1 to 42 (unknown origin) aggregation assessed as roughness index at 10 uM incubated for 7 days by AFM analysis
[14] = AUC (0 to 24 hrs) in Wistar rat at 10 mg/kg, po; format: ADME, organism-based; design: dose 10 mg/kg, time < 24 hr, route oral; conditions: in vivo
[15] = system: Rattus norvegicus; assay: In-vivo inhibition of scopolamine-induced acetylcholinesterase activity in Wistar rat brain homogenates using acetylthiocholine iodide as substrate at 10 mg/kg, po and measured for 6 mins by Ellman's method; format: functional, organism-based
[16] = system: Rattus norvegicus; assay: Effect on total arm entries in scopolamine-induced spatial memory impairment in Wistar rat model of amnesia at 10 mg/kg, po administered once daily for 1 week followed by scopolamine challenge 30 mins prior to test by Y-maze test relative to control; format: functional, organism-based
[17] = system: Rattus norvegicus; assay: Antioxidant activity Wistar rat model of scopolamine-induced amnesia assessed as increase in SOD levels in brain homogenates at 10 mg/kg, po by NBT dye based assay; format: functional, organism-based
[18] = target: T1, Acetylcholinesterase; assay: Non-competitive inhibition of human erythrocyte AChE using acetylthiocholine iodide as substrate preincubated for 10 mins followed by substrate addition and measured for 6 mins by Dixon plot analysis
[19] = Elimination half life in Wistar rat at 10 mg/kg, po measured up to 0 to 72 hrs; format: ADME, organism-based; conditions: in vivo, read-out: beta t1/2 (converted)
[20] = system: Rattus norvegicus; assay: Reversal of scopolamine-induced spatial memory impairment in Wistar rat model of amnesia assessed as decrease in transfer latency at 2.5 to 10 mg/kg, po administered once daily for 1 week followed by scopolamine challenge 30 mins prior to test by elevated plus maze test; format: functional, organism-based
[21] = Cytotoxicity against human SH-SY5Y cells assessed as cell viability at 10 to 80 uM after 48 hrs by MTT assay relative to control; format: cell-based; conditions: read-out: Activity
[22] = system: Rattus norvegicus; assay: Reversal of scopolamine-induced spatial memory impairment in Wistar rat model of amnesia assessed as increase in spontaneous alteration at 10 mg/kg, po administered once daily for 1 week followed by scopolamine challenge 30 mins prior to test by Y-maze test relative to control; format: functional, organism-based
[23] = system: Rattus norvegicus; assay: Reversal of scopolamine-induced spatial memory impairment in Wistar rat model of amnesia assessed as decrease in time spent on open arms at 2.5 to 10 mg/kg, po administered once daily for 1 week followed by scopolamine challenge 30 mins prior to test by elevated plus maze test; format: functional, organism-based
[24] = system: Rattus norvegicus; assay: Cognitive enhancing effect in Wistar rat model of amyloid beta (1 to 42) oligomer-induced memory impairment model assessed as escape latency time at 10 mg/kg, po for 9 days by Morris water maze test (reference value: 49.3 to 74 secs); format: functional, organism-based
[25] = Acute toxicity in Wistar rat at 100 to 500 mg/kg, po measured up to 14 days; format: organism-based; conditions: in vivo, 336 h
[26] = system: Rattus norvegicus; assay: Cognitive enhancing effect in Wistar rat model of amyloid beta (1 to 42) oligomer-induced memory impairment model assessed as increase in number of platform crossings at 10 mg/kg, po for 9 days by Morris water maze test; format: functional, organism-based

Sequence of Cholinesterase (P06276 whole entry): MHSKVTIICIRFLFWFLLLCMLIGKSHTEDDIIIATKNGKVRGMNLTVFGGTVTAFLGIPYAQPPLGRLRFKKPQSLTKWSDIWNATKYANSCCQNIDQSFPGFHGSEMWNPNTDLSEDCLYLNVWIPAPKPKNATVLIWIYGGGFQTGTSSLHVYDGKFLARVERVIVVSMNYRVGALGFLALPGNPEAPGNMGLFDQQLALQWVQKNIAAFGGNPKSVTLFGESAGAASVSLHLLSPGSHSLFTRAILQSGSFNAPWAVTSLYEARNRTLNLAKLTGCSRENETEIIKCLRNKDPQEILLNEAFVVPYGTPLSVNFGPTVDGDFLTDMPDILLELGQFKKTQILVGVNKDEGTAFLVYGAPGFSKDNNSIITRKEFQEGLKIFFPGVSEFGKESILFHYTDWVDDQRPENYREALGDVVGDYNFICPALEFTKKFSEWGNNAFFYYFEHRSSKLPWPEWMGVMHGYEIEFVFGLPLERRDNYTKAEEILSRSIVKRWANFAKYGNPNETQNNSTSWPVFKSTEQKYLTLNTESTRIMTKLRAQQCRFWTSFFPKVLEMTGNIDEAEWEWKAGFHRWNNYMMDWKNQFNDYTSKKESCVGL
Sequence of Beta-secretase 1 (P56817 whole entry, the tested form may be a part): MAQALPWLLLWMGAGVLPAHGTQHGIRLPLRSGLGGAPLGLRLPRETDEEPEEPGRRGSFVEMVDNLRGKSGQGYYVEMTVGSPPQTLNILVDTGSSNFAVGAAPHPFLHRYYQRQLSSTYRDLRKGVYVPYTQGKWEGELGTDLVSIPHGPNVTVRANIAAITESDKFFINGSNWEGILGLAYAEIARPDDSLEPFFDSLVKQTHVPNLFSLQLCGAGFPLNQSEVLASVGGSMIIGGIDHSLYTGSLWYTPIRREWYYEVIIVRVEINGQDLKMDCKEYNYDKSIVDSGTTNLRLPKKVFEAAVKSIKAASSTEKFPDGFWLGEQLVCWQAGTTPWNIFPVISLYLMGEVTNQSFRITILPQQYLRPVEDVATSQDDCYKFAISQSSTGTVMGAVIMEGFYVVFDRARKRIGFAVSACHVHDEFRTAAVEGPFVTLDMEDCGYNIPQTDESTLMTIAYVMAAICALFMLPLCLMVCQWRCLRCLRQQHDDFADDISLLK
T1 sequence (P22303 whole entry, the tested form may be a part): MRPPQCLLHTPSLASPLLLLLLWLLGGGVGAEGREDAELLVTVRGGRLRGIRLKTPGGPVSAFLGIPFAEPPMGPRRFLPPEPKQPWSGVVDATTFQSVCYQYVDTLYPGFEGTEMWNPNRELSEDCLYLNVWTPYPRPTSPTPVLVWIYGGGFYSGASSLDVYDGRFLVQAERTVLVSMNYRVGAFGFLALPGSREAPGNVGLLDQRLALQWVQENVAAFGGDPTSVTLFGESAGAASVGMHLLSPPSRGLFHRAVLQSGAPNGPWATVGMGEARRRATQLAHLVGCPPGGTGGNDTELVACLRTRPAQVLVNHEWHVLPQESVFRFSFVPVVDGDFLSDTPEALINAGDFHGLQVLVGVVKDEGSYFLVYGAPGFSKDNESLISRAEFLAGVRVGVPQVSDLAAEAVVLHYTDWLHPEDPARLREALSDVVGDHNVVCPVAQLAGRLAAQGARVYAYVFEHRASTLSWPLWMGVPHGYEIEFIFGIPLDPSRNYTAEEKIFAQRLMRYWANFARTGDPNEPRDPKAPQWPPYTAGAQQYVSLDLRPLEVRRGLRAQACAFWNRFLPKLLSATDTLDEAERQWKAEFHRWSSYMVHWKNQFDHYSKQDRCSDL
Sequence of Amyloid-beta precursor protein (Homo sapiens) (P05067 whole entry): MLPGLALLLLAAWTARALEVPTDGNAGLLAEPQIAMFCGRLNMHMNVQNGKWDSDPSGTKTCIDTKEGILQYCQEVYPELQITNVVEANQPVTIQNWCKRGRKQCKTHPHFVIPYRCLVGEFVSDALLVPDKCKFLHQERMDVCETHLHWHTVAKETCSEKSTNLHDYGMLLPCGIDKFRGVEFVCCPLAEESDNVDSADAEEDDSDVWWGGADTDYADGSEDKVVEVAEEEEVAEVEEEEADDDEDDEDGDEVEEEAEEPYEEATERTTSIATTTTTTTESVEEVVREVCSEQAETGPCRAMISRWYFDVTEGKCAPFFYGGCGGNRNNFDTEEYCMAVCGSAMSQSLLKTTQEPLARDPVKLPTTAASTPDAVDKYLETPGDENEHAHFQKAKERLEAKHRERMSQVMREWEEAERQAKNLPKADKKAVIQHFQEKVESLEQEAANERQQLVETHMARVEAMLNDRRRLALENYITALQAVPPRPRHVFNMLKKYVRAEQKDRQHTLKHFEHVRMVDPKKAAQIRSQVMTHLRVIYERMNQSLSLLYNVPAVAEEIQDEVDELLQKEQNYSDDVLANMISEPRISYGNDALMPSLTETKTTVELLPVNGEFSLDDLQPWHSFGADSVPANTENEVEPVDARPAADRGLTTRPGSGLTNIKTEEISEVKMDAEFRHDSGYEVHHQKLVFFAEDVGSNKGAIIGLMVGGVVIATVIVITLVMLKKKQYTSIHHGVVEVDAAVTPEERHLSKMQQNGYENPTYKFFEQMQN

Fc1ccc(/C=N/C2CCN(Cc3ccccc3)CC2)cc1
IC50 [1]: > 30 µM
IC50 [2]: 2.9 µM
IC50 [3]: 1.5 µM

COc1cc(/C=N/C2CCN(Cc3ccccc3)CC2)cc(OC)c1OC
IC50 [1]: 11 µM
IC50 [2]: > 15 µM
IC50 [3]: 14 µM

Oc1ccc(CNC2CCN(Cc3ccccc3)CC2)cc1
IC50 [1]: > 30 µM
IC50 [2]: 4 µM
IC50 [3]: 9.9 µM

Oc1ccc(/C=N/C2CCN(Cc3ccccc3)CC2)cc1
IC50 [1]: > 30 µM
IC50 [2]: 4.8 µM
IC50 [3]: 12 µM

Cc1ccc(CNC2CCN(Cc3ccccc3)CC2)cc1
IC50 [1]: > 30 µM
IC50 [2]: 3.7 µM
IC50 [3]: 17 µM

Cc1ccc(/C=N/C2CCN(Cc3ccccc3)CC2)cc1
IC50 [1]: > 30 µM
IC50 [2]: 4.4 µM
IC50 [3]: 19 µM

Clc1ccc(CNC2CCN(Cc3ccccc3)CC2)c(Cl)c1
IC50 [1]: 3.5 µM
IC50 [2]: 0.62 µM
IC50 [3]: 3 µM

Fc1ccc(CNC2CCN(Cc3ccccc3)CC2)c(F)c1
IC50 [1]: 3.1 µM
IC50 [2]: 0.71 µM
IC50 [3]: 2.9 µM

COc1cccc(/C=N/C2CCN(Cc3ccccc3)CC2)c1OC
IC50 [1]: > 30 µM
IC50 [2]: > 15 µM
IC50 [3]: 6.3 µM

COc1cc2c(cc1OC)C(=O)C(CC1CCN(Cc3ccccc3)CC1)C2 (stereo unspecified) [DONEPEZIL]
Time [4]: 22.5 to 72.5 s

FC(F)(F)c1ccc(CNC2CCN(Cc3ccccc3)CC2)cc1
Cmax [5]: 32.8 ng/mL
Activity [6]: Non-Toxic
Activity [7]: 44.5 to 104 nm
IC50 [1]: 3 µM
MRT [8]: 45.7 h
Tmax [9]: 5.3 h
Papp at 18 h, 25 ug/ml [10]: 6.09 ×10⁻⁶ cm/s
Activity [11]: Active
inhibition [12]: Active
Activity [13]: 1.7 to 4.4 nm
AUC(0-t) at 24 h [14]: 633 ng·h/mL
inhibition [15]: Active
Time [4]: 20.3 to 74.5 s
Activity [16]: inactive
Activity [17]: Active
Ki [18]: 0.1 µM
half-life [19]: 29.2 h
Activity [20]: Active
viability at 48 h, up to 80 µM [21]: 84.6 to 99.2%
Activity [22]: Active
IC50 [2]: 0.11 µM
IC50 [3]: 0.22 µM
Activity [23]: Active
Activity [24]: Active
Activity [25]: Non-Toxic
Activity [26]: Active

Clc1ccc(/C=N/C2CCN(Cc3ccccc3)CC2)cc1
IC50 [1]: 4.6 µM
IC50 [2]: 1.5 µM
IC50 [3]: 1.7 µM

Fc1ccc(/C=N/C2CCN(Cc3ccccc3)CC2)c(F)c1
IC50 [1]: > 30 µM
IC50 [2]: 1.3 µM
IC50 [3]: 3.5 µM

COc1cc(CNC2CCN(Cc3ccccc3)CC2)cc(OC)c1OC
IC50 [1]: 11 µM
IC50 [2]: 2.2 µM
IC50 [3]: 13 µM

COc1cccc(CNC2CCN(Cc3ccccc3)CC2)c1OC
IC50 [1]: 7.2 µM
IC50 [2]: 2.2 µM
IC50 [3]: 5.3 µM

FC(F)(F)Oc1ccc(/C=N/C2CCN(Cc3ccccc3)CC2)cc1
IC50 [1]: 5.5 µM
IC50 [2]: 1 µM
IC50 [3]: 1.8 µM

Oc1ccc(CNC2CCN(Cc3ccccc3)CC2)c(O)c1
IC50 [1]: 18 µM
IC50 [2]: 2.3 µM
IC50 [3]: 5.9 µM

Cc1cccc(/C=N/C2CCN(Cc3ccccc3)CC2)c1
IC50 [1]: > 30 µM
IC50 [2]: > 15 µM
IC50 [3]: 3.3 µM

O=[N+]([O-])c1ccc(CNC2CCN(Cc3ccccc3)CC2)cc1
Activity [6]: Non-Toxic
IC50 [1]: 7.8 µM
Papp at 18 h, 25 ug/ml [10]: 4.41 ×10⁻⁶ cm/s
Activity [11]: Active
inhibition [15]: Active
Activity [16]: inactive
Activity [17]: Active
Activity [20]: Active
viability at 48 h, up to 80 µM [21]: 76.3 to 96.3%
IC50 [2]: 0.72 µM
IC50 [3]: 0.43 µM
Activity [23]: Active
Activity [25]: Non-Toxic

Cc1cccc(CNC2CCN(Cc3ccccc3)CC2)c1
IC50 [1]: > 30 µM
IC50 [2]: 4.1 µM
IC50 [3]: 2.6 µM

Oc1ccccc1/C=N/C1CCN(Cc2ccccc2)CC1
IC50 [1]: 16 µM
IC50 [2]: 2.8 µM
IC50 [3]: 2.7 µM

FC(F)(F)Oc1ccc(CNC2CCN(Cc3ccccc3)CC2)cc1
IC50 [1]: 3.5 µM
IC50 [2]: 0.59 µM
IC50 [3]: 1.4 µM

Clc1ccc(/C=N/C2CCN(Cc3ccccc3)CC2)c(Cl)c1
IC50 [1]: 5.8 µM
IC50 [2]: 1.3 µM
IC50 [3]: 3.9 µM

Oc1ccccc1CNC1CCN(Cc2ccccc2)CC1
IC50 [1]: 14 µM
IC50 [2]: 2.4 µM
IC50 [3]: 2 µM

Fc1ccc(CNC2CCN(Cc3ccccc3)CC2)cc1
IC50 [1]: 3.9 µM
IC50 [2]: 1.2 µM
IC50 [3]: 0.55 µM

c1ccc(CNC2CCN(Cc3ccccc3)CC2)cc1
IC50 [1]: 12 µM
IC50 [2]: 1.7 µM
IC50 [3]: 2.9 µM

Clc1ccc(CNC2CCN(Cc3ccccc3)CC2)cc1
IC50 [1]: 4 µM
IC50 [2]: 0.85 µM
IC50 [3]: 0.66 µM

Oc1ccc(/C=N/C2CCN(Cc3ccccc3)CC2)c(O)c1
IC50 [1]: 19 µM
IC50 [2]: 2.6 µM
IC50 [3]: 10 µM

FC(F)(F)c1ccc(/C=N/C2CCN(Cc3ccccc3)CC2)cc1
IC50 [1]: 3.9 µM
Papp at 18 h, 25 ug/ml [10]: 6.24 ×10⁻⁶ cm/s
IC50 [2]: 0.44 µM
IC50 [3]: 0.28 µM

C(=N\C1CCN(Cc2ccccc2)CC1)/c1ccccc1
IC50 [1]: > 30 µM
IC50 [2]: 2.1 µM
IC50 [3]: 3.4 µM

O=[N+]([O-])c1ccc(/C=N/C2CCN(Cc3ccccc3)CC2)cc1
IC50 [1]: 7.3 µM
Papp at 18 h, 25 ug/ml [10]: 4.99 ×10⁻⁶ cm/s
IC50 [2]: 0.9 µM
IC50 [3]: 0.73 µM
